Assay results reported in patent publication US12202790B2, “Sulfonamide derivatives having selective Nox inhibiting activity” (GLUCOX BIOTECH AB, priority 2018, dated 2025).

Columns and labels:
Nox5 = Nox5 (Homo sapiens (Human), UniProt Q96PH1); experiment: Amplex Red assay of Nox5 expressing HEK cells; type: cell-based; parameters: key: The sign “—” stands for “inactive”
Excerpt: (§1) HEK293 overexpressing Nox4 (CJ Nox4) cells were purchased from Redoxis, Lund, Sweden. HEK 293 cells expressing Nox5, Nox3 (HEK TRex) and CHO cells expressing Nox1, were a kind gift from Vincent Jaque Center Medical Universitaire, Geneva, Switzerland. Nox2 expressed in isolated neutrophils were isolated from whole blood (human), as previously described (Anvari E, et al., Free Radic Res 2015; 49:1308-1318).
HEK293T cells expressing tetracycline-inducible human (Nox3 or Nox4) and HEK293 cells stably expressing human Nox5 were generated as described previously (Serrander et al., 2007a,b). HEK cells were cultured in Dulbecco's modified Eagle medium (DMEM) with 4.5 g/l glucose, supplemented with FBS (10%), penicillin (100 U/ml) and streptomycin […] at 37° C. in air with 5% CO2.
(§2) Reactive oxygen produced in whole cells or in membrane preparation of Nox1, Nox3, Nox4, Nox5 and xanthine oxidase and glucose oxidase were determined using Amplex Red as detection probe of formed H2O2. Amplex Red (10-acetyl-3,7-dihydroxyphenoxazine) in combination with HRP and co-factors reacts with H2O2 in a 1:1 stoichiometry to form a highly fluorescent resorufin excitated at 544 nm producing emission at 590 nm.
(§3) Adherent cells (CHO, HEK) were collected by trypsinization, centrifuged, washed with HBSS, counted, and resuspended in HBSS. Cells were seeded in 96-well black flat bottom plates at a density of 50,000-100,000 cells/well. All compounds were dissolved in DMSO and concentrations ranging from 0.003 to 200 μM were tested in Nox cellular assays with a final concentration of DMSO of 1%. Cells were incubated at 37° C. with the compounds for 30 minutes before measurement. Cells expressing Nox1 and Nox2 were activated with the PKC activator PMA (0.1 μM). Nox5 was activated with the Ca2+ ionophore ionomycin (1 μM) and further enforced with PMA. The CJ HEK 293 cells overexpressed Nox4 constitutively. In the HTS screen HEK 293 TRex was used and tetracycline ([…]) was added 18 h before measurement to induce Nox4 expression. Production of hydrogen peroxide by Nox in intact cells was measured using Amplex Red fluorescence as described by Jaquet V, et al., Br J Pharmacol 2011; 164:507-520. Assay reagents including HRP ([…]) and Amplex Red (50 μM) were added to initiate production of hydrogen peroxide. Fluorescence was read in a fluorescence plate reader at 37° C. every minute between 30-60 minutes.

Nox2 = Nox2 (Homo sapiens (Human), UniProt P04839); experiment: Nox2 inhibition in human neutrophils, isoluminol-dependent chemiluminescence; type: cell-based; parameters: key to IC50 Nox2: The sign “—” stands for “inactive”; details: PMA stimulated human neutrophils
Method: as §1
Compounds of the invention were tested for selectivity against Nox2 in isolated neutrophils from whole blood (human), as previously described (Anvari E, et al., vide supra). Levels of ROS from PMA stimulated primary human neutrophils were measured using isoluminol-dependent chemiluminescence. […] The dye is excited by ROS and the light emitted when the excited molecules return to the ground state, relative to the amount of released ROS, is measured. This reaction is catalyzed and amplified by peroxidases. […] Compounds of the invention and GKT136901 were diluted at 4× working concentration and titrated from 100 μM to 0.006 μM in 1:4 steps as final concentrations. DPI was diluted in isoluminol buffer at 4× working concentration titrated from 10 μM to 0.0006 μM as final concentrations. PMA was diluted in isoluminol buffer at 4× working concentration for a final concentration of 30 ng/ml. […] Luminescence was detected using FluoStar Optima (BMG, Labtech). The isoluminol buffer was prepared immediately prior to addition to test plate. The buffer contained HRP fraction with or without PMA (30 ng/ml). Stock solutions at 6 μg/ml (PMA in HBSS), 3 μg/ml (PMA in DMSO) and 24 mM (DPI) were used and further diluted at the day of analysis to 4× working concentrations in HBSS with or without DMSO.

DPPH redox assay = experiment: DPPH redox assay; parameters: key: The sign “—” stands for “inactive”; details: redox activity control
Method: DPPH, a well-known sensitive chemical of monitoring reactions involving radicals described by Xiong Q, et al., Biol Pharm Bull 1996; 19:1580-1585, was used as control to exclude any redox active compound. DPPH was incubated with decreasing concentrations (200-0.003 μM) of compounds of the invention or prior art compound GKT136901 (as a positive control). The plate was kept in the dark for 60 min, after which the absorbance of the solution was measured at 518 nm.

Nox1 = Nox1 (Homo sapiens (Human), UniProt Q9Y5S8); experiment: Amplex Red assay of Nox1 expressing CHO cells; type: cell-based; parameters: key to IC50 Nox1: The sign “—” stands for “inactive”
Method: as §1
CHO cells expressing Nox1 were cultured in DMEM 12 medium (DMEM/F12) supplemented with FBS (10%), penicillin (100 U/ml) and streptomycin (100 μg/ml) at 37° C. in air with 5% CO2.
as §2, §3

hNox4 = hNox4 (Homo sapiens (Human), UniProt Q9NPH5); experiment: Amplex Red assay of intact Nox4 expressing HEK293 cells; type: cell-based; details: read-out: IC50 Nox4
Method: as §1
HEK293 cells (CJ Nox4) were cultured in RPMI 1640 with Glutamax supplemented with FBS (10%), penicillin (100 U/ml) and streptomycin […] at 37° C. in air with 5% CO2. Every third passage 200 µg/ml neomycin were supplied in growth medium as selective agent.
as §2, §3

xanthine oxidase = xanthine oxidase (Bos taurus (Bovine), UniProt P80457); experiment: Amplex Red xanthine oxidase (XO) assay; type: biochemical; parameters: key: The sign “—” stands for “inactive”
Method: as §2
The assay was designed for Amplex Red analysis of production of hydrogen peroxide. Test compounds were incubated with 5 mU/ml bovine derived xanthine oxidase for 15 min at room temperature followed by the addition of substrate and detection mix (final concentrations of 0.2 U/ml HRP, 5 μM hypoxanthine, and 50 μM Amplex Red). As described by Hirano K et al., Antioxid Redox Signal 2015 10; 23:358-374, production of hydrogen peroxide was followed by fluorescence detection during 30 min at 37° C. in a plate reader that use excitation at 544 nm producing emission at 590 nm.

Human islet cells = experiment: Effects on human islet cell viability; type: cell-based; details: 48 h, inhibitor 2 μM; for human islet cell death with cytokines: IL-1β (20 ng/ml)+IFN-γ (20 ng/ml); for human islet cell death with high glucose+palmitate: palmitate (1.5 mM)+high glucose (20 mM)
Method: Human islet cells were incubated at control condition, with the cytokines IL-1β (20 ng/ml)+IFN-γ (20 ng/ml), or with palmitate (1.5 mM+2% BSA)+high glucose (20 mM) (PH) for 2 days with or without Nox1 inhibitor ML-171 (2 μM), Nox2 inhibitor Phos-I2 (2 μM) or Example 17 (1 μM). Islets were photographed in an inverted fluorescence microscope and the intensities of red (PI) and blue (Bisbenzimide) signals were quantified using Image J software. Results are indicated as mean±S.E.M for 7 human islet donors.

Chain of xanthine oxidase (P80457 whole entry): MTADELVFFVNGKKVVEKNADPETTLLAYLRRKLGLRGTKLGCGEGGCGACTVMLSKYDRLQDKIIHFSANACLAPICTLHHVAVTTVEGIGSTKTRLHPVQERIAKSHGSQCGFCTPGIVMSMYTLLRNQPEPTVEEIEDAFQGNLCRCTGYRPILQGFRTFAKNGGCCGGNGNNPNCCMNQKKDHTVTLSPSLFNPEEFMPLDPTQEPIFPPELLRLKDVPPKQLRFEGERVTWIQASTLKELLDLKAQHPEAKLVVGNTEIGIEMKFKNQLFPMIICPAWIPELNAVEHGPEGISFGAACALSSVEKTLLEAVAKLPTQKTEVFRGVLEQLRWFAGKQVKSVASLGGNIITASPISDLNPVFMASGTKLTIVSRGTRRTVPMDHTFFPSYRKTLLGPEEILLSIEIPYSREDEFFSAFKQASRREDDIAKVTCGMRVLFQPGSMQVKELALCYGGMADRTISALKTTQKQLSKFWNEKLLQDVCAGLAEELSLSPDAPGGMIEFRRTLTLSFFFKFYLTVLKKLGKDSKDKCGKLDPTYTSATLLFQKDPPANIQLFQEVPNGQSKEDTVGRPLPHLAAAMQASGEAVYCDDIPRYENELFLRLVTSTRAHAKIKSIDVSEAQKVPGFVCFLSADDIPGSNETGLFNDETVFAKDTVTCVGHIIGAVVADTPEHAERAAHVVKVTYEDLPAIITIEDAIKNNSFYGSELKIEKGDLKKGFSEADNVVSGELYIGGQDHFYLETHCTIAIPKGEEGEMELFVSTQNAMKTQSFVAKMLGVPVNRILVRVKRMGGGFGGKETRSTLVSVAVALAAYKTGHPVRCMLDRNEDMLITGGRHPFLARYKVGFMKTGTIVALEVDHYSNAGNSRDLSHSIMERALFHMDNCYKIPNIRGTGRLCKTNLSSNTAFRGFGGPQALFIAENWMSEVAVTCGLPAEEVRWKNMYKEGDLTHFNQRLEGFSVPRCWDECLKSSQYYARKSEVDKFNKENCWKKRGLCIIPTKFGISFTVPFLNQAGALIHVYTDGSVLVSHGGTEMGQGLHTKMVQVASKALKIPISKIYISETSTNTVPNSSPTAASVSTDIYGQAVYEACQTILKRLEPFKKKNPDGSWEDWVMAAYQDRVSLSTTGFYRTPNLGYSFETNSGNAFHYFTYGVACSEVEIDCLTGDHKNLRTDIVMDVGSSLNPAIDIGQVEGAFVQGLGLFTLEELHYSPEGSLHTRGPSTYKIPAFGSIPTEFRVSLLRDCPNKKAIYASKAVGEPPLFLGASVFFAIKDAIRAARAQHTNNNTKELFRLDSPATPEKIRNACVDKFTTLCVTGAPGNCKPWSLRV
Chain of Nox2 (P04839 2-570): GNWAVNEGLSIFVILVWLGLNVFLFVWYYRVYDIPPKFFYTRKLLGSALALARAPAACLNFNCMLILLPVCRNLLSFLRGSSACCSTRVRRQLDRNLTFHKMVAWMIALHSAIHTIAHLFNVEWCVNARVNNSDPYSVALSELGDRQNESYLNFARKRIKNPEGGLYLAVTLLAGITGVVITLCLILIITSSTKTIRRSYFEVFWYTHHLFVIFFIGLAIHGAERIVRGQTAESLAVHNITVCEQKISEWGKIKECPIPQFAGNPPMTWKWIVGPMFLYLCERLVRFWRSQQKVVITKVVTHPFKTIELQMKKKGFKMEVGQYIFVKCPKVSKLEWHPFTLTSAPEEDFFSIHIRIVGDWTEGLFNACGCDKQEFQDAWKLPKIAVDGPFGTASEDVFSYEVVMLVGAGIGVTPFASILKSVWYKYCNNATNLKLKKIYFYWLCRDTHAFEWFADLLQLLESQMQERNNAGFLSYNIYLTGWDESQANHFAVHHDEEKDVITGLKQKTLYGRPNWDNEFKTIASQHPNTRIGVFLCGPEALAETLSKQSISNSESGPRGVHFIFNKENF
Chain of Nox2 (P13498 2-195 partner): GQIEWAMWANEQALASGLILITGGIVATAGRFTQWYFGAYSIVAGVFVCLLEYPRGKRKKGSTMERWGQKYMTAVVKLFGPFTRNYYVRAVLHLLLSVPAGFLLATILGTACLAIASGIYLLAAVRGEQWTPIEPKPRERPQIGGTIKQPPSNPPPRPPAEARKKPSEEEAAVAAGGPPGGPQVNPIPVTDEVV
Chain of hNox4 (Q9NPH5 whole entry): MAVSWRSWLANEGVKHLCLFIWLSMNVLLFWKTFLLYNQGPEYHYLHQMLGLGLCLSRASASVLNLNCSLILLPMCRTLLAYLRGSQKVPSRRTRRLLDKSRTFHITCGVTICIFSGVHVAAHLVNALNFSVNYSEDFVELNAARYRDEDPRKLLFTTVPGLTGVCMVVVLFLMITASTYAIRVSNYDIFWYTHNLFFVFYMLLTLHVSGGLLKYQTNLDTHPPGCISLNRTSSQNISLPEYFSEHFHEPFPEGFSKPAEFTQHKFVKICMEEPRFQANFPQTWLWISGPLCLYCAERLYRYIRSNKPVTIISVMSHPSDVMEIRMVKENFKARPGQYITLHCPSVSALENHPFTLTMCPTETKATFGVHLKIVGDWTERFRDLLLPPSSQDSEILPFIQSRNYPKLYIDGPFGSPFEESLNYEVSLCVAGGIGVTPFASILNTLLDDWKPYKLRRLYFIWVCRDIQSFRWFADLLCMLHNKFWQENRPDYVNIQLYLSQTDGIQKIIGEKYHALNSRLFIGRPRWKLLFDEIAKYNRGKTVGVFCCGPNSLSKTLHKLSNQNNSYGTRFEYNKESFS
Chain of hNox4 (P13498 2-195 partner): as the sequence (P13498 2-195 partner) above
Chain of Nox5 (Q96PH1 whole entry): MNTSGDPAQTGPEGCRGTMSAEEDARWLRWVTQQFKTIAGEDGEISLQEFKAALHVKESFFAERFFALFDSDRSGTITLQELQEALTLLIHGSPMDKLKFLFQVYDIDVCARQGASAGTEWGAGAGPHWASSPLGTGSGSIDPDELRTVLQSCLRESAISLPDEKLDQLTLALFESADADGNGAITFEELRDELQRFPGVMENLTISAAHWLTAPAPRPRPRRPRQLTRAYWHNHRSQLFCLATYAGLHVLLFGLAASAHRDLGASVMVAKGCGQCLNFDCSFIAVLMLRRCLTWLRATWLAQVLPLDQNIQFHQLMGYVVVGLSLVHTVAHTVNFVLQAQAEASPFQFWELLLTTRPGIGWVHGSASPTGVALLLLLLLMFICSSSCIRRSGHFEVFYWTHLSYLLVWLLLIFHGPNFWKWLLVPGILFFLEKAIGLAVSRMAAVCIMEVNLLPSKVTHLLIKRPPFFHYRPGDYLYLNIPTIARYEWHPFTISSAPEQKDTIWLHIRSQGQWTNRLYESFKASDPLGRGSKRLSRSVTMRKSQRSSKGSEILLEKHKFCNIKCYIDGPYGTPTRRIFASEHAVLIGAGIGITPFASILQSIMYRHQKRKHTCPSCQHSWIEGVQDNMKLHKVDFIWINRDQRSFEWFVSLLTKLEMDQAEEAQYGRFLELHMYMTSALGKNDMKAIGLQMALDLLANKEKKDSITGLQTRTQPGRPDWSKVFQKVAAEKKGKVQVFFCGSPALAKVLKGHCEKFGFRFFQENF
Chain of Nox1 (Q9Y5S8 whole entry): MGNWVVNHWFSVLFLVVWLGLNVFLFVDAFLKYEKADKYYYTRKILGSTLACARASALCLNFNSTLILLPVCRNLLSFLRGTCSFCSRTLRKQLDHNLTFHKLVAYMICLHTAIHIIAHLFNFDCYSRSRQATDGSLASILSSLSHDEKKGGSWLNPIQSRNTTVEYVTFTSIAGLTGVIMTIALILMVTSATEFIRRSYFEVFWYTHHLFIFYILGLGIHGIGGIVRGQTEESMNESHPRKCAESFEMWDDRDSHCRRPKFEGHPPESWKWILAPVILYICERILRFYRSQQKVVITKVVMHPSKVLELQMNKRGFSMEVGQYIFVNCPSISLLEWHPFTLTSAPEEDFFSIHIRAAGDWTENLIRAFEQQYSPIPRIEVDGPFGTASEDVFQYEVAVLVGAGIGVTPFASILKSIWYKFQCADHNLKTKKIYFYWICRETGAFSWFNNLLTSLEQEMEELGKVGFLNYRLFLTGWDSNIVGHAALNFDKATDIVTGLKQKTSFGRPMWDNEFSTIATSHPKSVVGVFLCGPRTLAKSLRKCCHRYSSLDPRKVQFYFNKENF
Chain of Nox1 (P13498 2-195 partner): as the sequence (P13498 2-195 partner) above

Row | IC50 Nox5 (Nox5) | IC50 Nox2 (Nox2) | IC50 DPPH (DPPH redox assay) | IC50 Nox1 (Nox1) | IC50 (hNox4) | IC50 XO (xanthine oxidase) | IC50 (Nox2) | IC50 (Nox1) | SMILES | human islet cell death with cytokines (Human islet cells) | human islet cell death with high glucose+palmitate (Human islet cells)
1 | — | — | — | — | 2200 nM | — |  |  | Cc1cc(C)c(S(=O)(=O)NCCc2ccccc2F)c(C)c1 [Example 2, N-[2-(2-fluorophenyl)ethyl]-2,4,6-trimethylbenzene-1-sulfonamide] |  | 
2 | — | — | — | — | 1700 nM | — |  |  | Cc1ccccc1C(F)CNS(=O)(=O)c1c(Cl)cc(Br)cc1Cl (single isomer, unassigned) [Example 35 (isomer 1), 4-bromo-2,6-dichloro-N-[2-fluoro-2-(2-methylphenyl)ethyl]benzene-1-sulfonamide] |  | 
3 | — | — | — | — | 270 nM | — |  |  | Cc1cc(C)c(S(=O)(=O)NCCc2ccccc2Cl)c(C)c1 [Example 6, N-[2-(2-chlorophenyl)ethyl]-2,4,6-trimethylbenzene-1-sulfonamide] |  | 
4 | — |  | — | — | 1600 nM | — |  |  | O=S(=O)(NCCc1ccccc1Cl)c1c(Cl)cc(C(F)(F)F)cc1Cl [Example 27, 2,6-dichloro-N-[2-(2-chlorophenyl)ethyl]-4-(trifluoromethyl)benzene-1-sulfonamide] |  | 
5 | — |  | — | — | 1100 nM | — |  |  | O=S(=O)(NCCc1ccccc1F)c1c(Cl)cc(C2CC2)cc1Cl [Example 25, 2,6-dichloro-4-cyclopropyl-N-[2-(2-fluorophenyl)ethyl]benzene-1-sulfonamide] |  | 
6 | — | — | — | — | 4900 nM | — |  |  | Cc1ccccc1C(F)CNS(=O)(=O)c1c(Cl)cc(Br)cc1Cl (single isomer, unassigned) [Example 35 (isomer 2), 4-bromo-2,6-dichloro-N-[2-fluoro-2-(2-methylphenyl)ethyl]benzene-1-sulfonamide] |  | 
7 | — |  | — | — | 900 nM | — |  |  | O=S(=O)(NCCc1ccccc1Cl)c1c(Cl)cc(Br)cc1Cl [Example 20, 4-bromo-2,6-dichloro-N-[2-(2-chlorophenyl)ethyl]benzene-1-sulfonamide] |  | 

Continued, molecule first:

Row | SMILES | IC50 Nox5 (Nox5) | IC50 Nox2 (Nox2) | IC50 DPPH (DPPH redox assay) | IC50 Nox1 (Nox1) | IC50 (hNox4) | IC50 XO (xanthine oxidase) | IC50 (Nox2) | IC50 (Nox1) | human islet cell death with cytokines (Human islet cells) | human islet cell death with high glucose+palmitate (Human islet cells)
8 | Cc1c(C)c(S(=O)(=O)NCCc2ccccc2Cl)c(C)c2c1OC(C)(C)C2 [Example 9, N-[2-(2-chlorophenyl)ethyl]-2,2,4,6,7-pentamethyl-2,3-dihydro-1-benzofuran-5-sulfonamide] | — | — | — | — | 1600 nM | — |  |  |  | 
9 | Cc1cc(C)c(S(=O)(=O)NCCc2ccccc2C)c(C)c1 [Example 14, 2,4,6-trimethyl-N-[2-(2-methylphenyl)ethyl]benzene-1-sulfonamide] | — | — | — | — | 90 nM | — |  |  |  | 
10 | Cc1cc(C)c(S(=O)(=O)NCCc2ccccc2Br)c(C)c1 [Example 7, N-[2-(2-bromophenyl)ethyl]-2,4,6-trimethylbenzene-1-sulfonamide] | — | — |  | — | 270 nM | — |  |  |  | 
11 | CC(=O)c1ccc2c(c1)Nc1ccccc1S2 [ML171] |  |  |  |  |  |  |  |  | failed to reduce human islet cell death | failed to reduce human islet cell death
12 | Cc1c2c(=O)n(-c3ccccc3Cl)[nH]c2cc(=O)n1Cc1ccccn1 [GKT136901, 2-(2-Chlorophenyl)-4-methyl-5-(pyridin-2-ylmethyl)-1H-pyrazolo[4,3-c]pyridine-3,6-dione, reference compound] |  |  | active |  | 1600 nM |  | 9000 nM | 500 nM |  | 
13 | O=[N+]([O-])c1cccc(C2Nc3ccc([N+](=O)[O-])cc3C3C=CCC32)c1 (stereo not shown) [Phox-I2] |  |  |  |  |  |  |  |  | failed to protect human islets against cytokines | partially protected against high glucose+palmitate
